What was measured:
Assay in all cases: relative viability (nuclei count vs DMSO), 5 days (fraction); higher = more cells survive
[1] = compound: CC1=CC(=NN1)NC2=CC(=NC(=N2)/C=C/C3=CC=CC=C3)N4CCN(CC4)C + COc1cc2c(Oc3ccc(NC(=O)C4(C(=O)Nc5ccc(F)cc5)CC4)cc3F)ccnc2cc1OCCCN1CCOCC1 [Foretinib] (partner 0.25 µM)
Summary of the method: (§1)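 A single step with final 0.05% Triton X-100, 1% formaldehyde and 1 ug/ml Hoechst fixed the cells and stained nuclei 5 days after treatment. Lung cancer cell lines in 1536-well plates had been treated by pin tool the day after seeding with one drug alone or a fixed anchor-drug dose plus five library-drug doses (not always all listed) in √10 steps, and nuclei were counted on 4× images. Relative viability is the ratio of nuclei in treated wells to nuclei in vehicle wells, taken as the median of duplicate plates.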

Obatoclax + Lapatinib = compound: COC1=CC(c2cc3ccccc3[nH]2)=N/C1=C\c1[nH]c(C)cc1C [Obatoclax] + CS(=O)(=O)CCNCc1ccc(-c2ccc3ncnc(Nc4ccc(OCc5cccc(F)c5)c(Cl)c4)c3c2)o1 [Lapatinib] (partner 2 µM)
Summary of the method: as §1

Bortezomib + Alpelisib = compound: CC(C)C[C@H](NC(=O)[C@H](Cc1ccccc1)NC(=O)c1cnccn1)B(O)O [Bortezomib] + Cc1nc(NC(=O)N2CCC[C@H]2C(N)=O)sc1-c1ccnc(C(C)(C)C(F)(F)F)c1 [Alpelisib] (partner 2 µM)
Summary of the method: as §1

Obatoclax + Phenformin = compound: COC1=CC(c2cc3ccccc3[nH]2)=N/C1=C\c1[nH]c(C)cc1C [Obatoclax] + N=C(N)NC(=N)NCCc1ccccc1 [Phenformin] (partner 250 µM)
Summary of the method: as §1

Row | Cell Line | relative viability ([1]; first compound 0.08 µM) | relative viability ([1]; first compound 0.253 µM) | relative viability ([1]; first compound 0.8 µM) | relative viability ([1]; first compound 2.53 µM) | relative viability ([1]; first compound 8 µM) | relative viability (Obatoclax + Lapatinib; first compound 0.01 µM) | relative viability (Obatoclax + Lapatinib; first compound 0.03162 µM) | relative viability (Obatoclax + Lapatinib; first compound 0.1 µM) | relative viability (Obatoclax + Lapatinib; first compound 0.3162 µM) | relative viability (Obatoclax + Lapatinib; first compound 1 µM) | relative viability (Bortezomib + Alpelisib; first compound 0.0002 µM) | relative viability (Bortezomib + Alpelisib; first compound 0.000632 µM) | relative viability (Bortezomib + Alpelisib; first compound 0.002 µM) | relative viability (Bortezomib + Alpelisib; first compound 0.006325 µM) | relative viability (Bortezomib + Alpelisib; first compound 0.02 µM) | relative viability (Obatoclax + Phenformin; first compound 0.01 µM) | relative viability (Obatoclax + Phenformin; first compound 0.03162 µM) | relative viability (Obatoclax + Phenformin; first compound 0.1 µM) | relative viability (Obatoclax + Phenformin; first compound 0.3162 µM) | relative viability (Obatoclax + Phenformin; first compound 1 µM)
1 | PC-3 [JPC-3] | 1.01 | 1.1 | 1.02 | 0.87 | 0.493 | 0.456 | 0.406 | 0.469 | 0.443 | 0.457 | 1.03 | 1.04 | 0.786 | 0.901 | 0.134 | 0.477 | 0.486 | 0.511 | 0.473 | 0.489
2 | PC-14 | 0.974 | 1.09 | 0.534 | 0.869 | 0.398 | 0.297 | 0.309 | 0.334 | 0.257 | 0.301 | 0.977 | 0.909 | 1.01 | 0.325 | 0.0573 | 0.551 | 0.612 | 0.308 | 0.425 | 0.281
3 | RERF-LC-KJ | 0.846 | 0.93 | 0.824 | 0.744 | 0.586 | 0.837 | 0.832 | 0.843 | 0.831 | 0.859 | 0.8 | 0.782 | 0.815 | 0.477 | 0.212 | 0.37 | 0.441 | 0.459 | 0.45 | 0.434
4 | SK-LU-1 | 0.756 | 0.821 | 0.671 | 0.177 | 0.0847 | 0.75 | 0.87 | 0.61 | 0.637 | 0.621 | 1.09 | 0.963 | 0.551 | 0.154 | 0.149 | 0.587 | 0.507 | 0.414 | 0.246 | 0.244
5 | SK-MES-1 | 0.896 | 0.858 | 0.864 | 0.653 | 0.352 | 0.457 | 0.458 | 0.509 | 0.519 | 0.519 | 0.86 | 0.723 | 0.825 | 0.475 | 0.206 | 0.642 | 0.704 | 0.558 | 0.361 | 0.273
6 | SW 1573 | 0.847 | 0.993 | 1.1 | 0.536 | 0.151 | 1.06 | 1.16 | 1.31 | 1.13 | 0.559 | 0.833 | 0.774 | 0.813 | 0.164 | 0.0782 | 0.333 | 0.31 | 0.282 | 0.24 | 0.153
7 | UMC-11 | 1.06 | 0.908 | 0.466 | 0.17 | 0.13 | 1.06 | 1.04 | 0.973 | 0.613 | 0.346 | 0.842 | 0.994 | 1.09 | 0.223 | 0.136 | 0.303 | 0.294 | 0.291 | 0.272 | 0.242

— the supplement of paper PMC10307832
